In ChEMBL document CHEMBL4043169, “Discovery of potent and selective CDK8 inhibitors through FBDD approach” (Bioorg Med Chem Lett, 2017):
Each block holds one compound with its values, some of them ahead of it.

Tests used:
CDK8/Cyclin C = CDK8/Cyclin C (Homo sapiens, UniProt P49336); test: Inhibition of recombinant full length His-tagged human CDK8/Cyclin C expressed in baculovirus expression system using Ulight-GS peptide as substrate after 30 mins in presence of ATP by TR-FRET assay
AGS = test: Antiproliferative activity against human AGS cells after 72 hrs by MTT assay
[1] = Clearance in mouse at 5 mg/kg, iv; assay type: ADME, organism-based; conditions: in vivo
[2] = Cmax in mouse at 5 mg/kg, iv; assay type: ADME, organism-based; parameters: dose 5 mg/kg, route intravenous; conditions: in vivo
[3] = Cmax in mouse at 25 mg/kg, po; assay type: ADME, organism-based; parameters: dose 25 mg/kg, route oral; conditions: in vivo
[4] = Tmax in mouse at 25 mg/kg, po; assay type: ADME, organism-based; conditions: in vivo
[5] = Half life in mouse at 5 mg/kg, iv; assay type: ADME, organism-based; conditions: in vivo
[6] = Half life in mouse at 25 mg/kg, po; assay type: ADME, organism-based; conditions: in vivo
[7] = Volume of distribution at steady state in mouse at 5 mg/kg, iv; assay type: ADME, organism-based; conditions: in vivo, read-out: Vdss
[8] = Oral bioavailability in mouse at 25 mg/kg; assay type: ADME, organism-based; conditions: in vivo
[9] = biological target: Platelet-derived growth factor receptor alpha (Homo sapiens) (UniProt P16234); test: Inhibition of PDGFRalpha (unknown origin) at 1 uM relative to control
[10] = biological target: Vascular endothelial growth factor receptor 2 (Homo sapiens) (UniProt P35968); test: Inhibition of KDR (unknown origin) at 1 uM relative to control
[11] = biological target: Fibroblast growth factor receptor 1 (Homo sapiens) (UniProt P11362); test: Inhibition of FGFR1 (unknown origin) at 1 uM relative to control
[12] = biological target: Tyrosine-protein kinase JAK2 (Homo sapiens) (UniProt O60674); test: Inhibition of JAK2 (unknown origin) at 1 uM relative to control
Homo sapiens = species: Homo sapiens; test: Inhibition of P70S6K (unknown origin) at 1 uM relative to control
[13] = biological target: Calcium/calmodulin-dependent protein kinase type IV (Homo sapiens) (UniProt Q16566); test: Inhibition of CAMK4 (unknown origin) at 1 uM relative to control
[14] = biological target: Angiopoietin-1 receptor (Homo sapiens) (UniProt Q02763); test: Inhibition of TIE2 (unknown origin) at 1 uM relative to control
[15] = biological target: Mast/stem cell growth factor receptor Kit (Homo sapiens) (UniProt P10721); test: Inhibition of cKIT (unknown origin) at 1 uM relative to control
[16] = biological target: Mitogen-activated protein kinase 14 (Homo sapiens) (UniProt Q16539); test: Inhibition of p38alpha (unknown origin) at 1 uM relative to control
[17] = biological target: Serine/threonine-protein kinase PAK 4 (Homo sapiens) (UniProt O96013); test: Inhibition of PAK4 (unknown origin) at 1 uM relative to control
[18] = biological target: Serine/threonine-protein kinase Sgk1 (Homo sapiens) (UniProt O00141); test: Inhibition of SGK (unknown origin) at 1 uM relative to control
[19] = biological target: Tyrosine-protein kinase ABL1 (Homo sapiens) (UniProt P00519); test: Inhibition of ABL (unknown origin) at 1 uM relative to control
[20] = biological target: Inhibitor of nuclear factor kappa-B kinase subunit beta (Homo sapiens) (UniProt O14920); test: Inhibition of IKKbeta (unknown origin) at 1 uM relative to control
[21] = biological target: Proto-oncogene tyrosine-protein kinase Src (Homo sapiens) (UniProt P12931); test: Inhibition of SRC (unknown origin) at 1 uM relative to control
[22] = biological target: Tyrosine-protein kinase Lck (Homo sapiens) (UniProt P06239); test: Inhibition of LCK (unknown origin) at 1 uM relative to control
[23] = biological target: Ephrin type-A receptor 1 (Homo sapiens) (UniProt P21709); test: Inhibition of EPHA1 (unknown origin) at 1 uM relative to control
[24] = biological target: ALK tyrosine kinase receptor (Homo sapiens) (UniProt Q9UM73); test: Inhibition of ALK (unknown origin) at 1 uM relative to control
[25] = biological target: Epidermal growth factor receptor (Homo sapiens) (UniProt P00533); test: Inhibition of EGFR (unknown origin) at 1 uM relative to control
[26] = biological target: RAC-alpha serine/threonine-protein kinase (Homo sapiens) (UniProt P31749); test: Inhibition of AKT1 (unknown origin) at 1 uM relative to control
[27] = biological target: Insulin-like growth factor 1 receptor (Homo sapiens) (UniProt P08069); test: Inhibition of IGF1R (unknown origin) at 1 uM relative to control
[28] = biological target: Ribosomal protein S6 kinase alpha-1 (Homo sapiens) (UniProt Q15418); test: Inhibition of RSK1 (unknown origin) at 1 uM relative to control
[29] = biological target: Ribosomal protein S6 kinase alpha-2 (Homo sapiens) (UniProt Q15349); test: Inhibition of RSK2 (unknown origin) at 1 uM relative to control
[30] = biological target: Ribosomal protein S6 kinase alpha-5 (Homo sapiens) (UniProt O75582); test: Inhibition of MSK1 (unknown origin) at 1 uM relative to control
[31] = biological target: Ribosomal protein S6 kinase alpha-4 (Homo sapiens) (UniProt O75676); test: Inhibition of MSK2 (unknown origin) at 1 uM relative to control
[32] = biological target: Serine/threonine-protein kinase pim-1 (Homo sapiens) (UniProt P11309); test: Inhibition of PIM1 (unknown origin) at 1 uM relative to control
[33] = biological target: Protein kinase C alpha type (Homo sapiens) (UniProt P17252); test: Inhibition of PKCalpha (unknown origin) at 1 uM relative to control
[34] = biological target: Rho-associated protein kinase 1 (Homo sapiens) (UniProt Q13464); test: Inhibition of ROCK1 (unknown origin) at 1 uM relative to control
[35] = biological target: Glycogen synthase kinase-3 beta (Homo sapiens) (UniProt P49841); test: Inhibition of Gsk3beta (unknown origin) at 1 uM relative to control
[36] = biological target: Mitogen-activated protein kinase 9 (Homo sapiens) (UniProt P45984); test: Inhibition of JNK2 (unknown origin) at 1 uM relative to control
[37] = biological target: Serine/threonine-protein kinase MARK1 (Homo sapiens) (UniProt Q9P0L2); test: Inhibition of MARK1 (unknown origin) at 1 uM relative to control
[38] = biological target: Serine/threonine-protein kinase 4 (Homo sapiens) (UniProt Q13043); test: Inhibition of MST1 (unknown origin) at 1 uM relative to control
[39] = biological target: Casein kinase I isoform delta (Homo sapiens) (UniProt P48730); test: Inhibition of CK1delta (unknown origin) at 1 uM relative to control
[40] = biological target: Aurora kinase B (Homo sapiens) (UniProt Q96GD4); test: Inhibition of AurB (unknown origin) at 1 uM relative to control
[41] = biological target: Aurora kinase A (Homo sapiens) (UniProt O14965); test: Inhibition of AurA (unknown origin) at 1 uM relative to control
[42] = biological target: 5'-AMP-activated protein kinase catalytic subunit alpha-1 (Homo sapiens) (UniProt Q13131); test: Inhibition of AMPKa1 (unknown origin) at 1 uM relative to control
[43] = biological target: Receptor-type tyrosine-protein kinase FLT3 (Homo sapiens) (UniProt P36888); test: Inhibition of FLT3 (unknown origin) at 1 uM relative to control
[44] = biological target: Hepatocyte growth factor receptor (Homo sapiens) (UniProt P08581); test: Inhibition of cMET (unknown origin) at 1 uM relative to control
[45] = biological target: Interleukin-1 receptor-associated kinase 1 (Homo sapiens) (UniProt P51617); test: Inhibition of IRAK1 (unknown origin) at 1 uM relative to control
[46] = biological target: Mitogen-activated protein kinase 3 (Homo sapiens) (UniProt P27361); test: Inhibition of ERK1 (unknown origin) at 1 uM relative to control
[47] = biological target: Receptor tyrosine-protein kinase erbB-2 (Homo sapiens) (UniProt P04626); test: Inhibition of HER2 (unknown origin) at 1 uM relative to control
[48] = biological target: Cyclin-dependent kinase 2 (Homo sapiens) (UniProt P24941); test: Inhibition of CDK2 (unknown origin) at 1 uM relative to control
[49] = biological target: Cyclin-dependent kinase 6 (Homo sapiens) (UniProt Q00534); test: Inhibition of CDK6 (unknown origin) at 1 uM relative to control
[50] = biological target: 3-phosphoinositide-dependent protein kinase 1 (Homo sapiens) (UniProt O15530); test: Inhibition of PDK1 (unknown origin) at 1 uM relative to control

CDK8/Cyclin C, sequence (P49336 whole entry): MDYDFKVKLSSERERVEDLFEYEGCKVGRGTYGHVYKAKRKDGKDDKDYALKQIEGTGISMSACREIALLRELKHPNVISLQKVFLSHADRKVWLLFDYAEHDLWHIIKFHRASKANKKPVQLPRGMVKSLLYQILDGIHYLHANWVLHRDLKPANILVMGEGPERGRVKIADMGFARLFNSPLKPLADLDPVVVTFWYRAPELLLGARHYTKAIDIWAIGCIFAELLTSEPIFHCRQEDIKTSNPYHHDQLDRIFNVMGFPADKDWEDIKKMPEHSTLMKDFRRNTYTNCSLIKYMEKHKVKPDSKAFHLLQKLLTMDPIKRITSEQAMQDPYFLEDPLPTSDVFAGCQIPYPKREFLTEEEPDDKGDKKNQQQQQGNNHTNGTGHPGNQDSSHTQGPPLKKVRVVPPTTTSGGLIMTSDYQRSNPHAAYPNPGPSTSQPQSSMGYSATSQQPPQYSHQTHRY
CDK8/Cyclin C, sequence (P24863 whole entry, further chain): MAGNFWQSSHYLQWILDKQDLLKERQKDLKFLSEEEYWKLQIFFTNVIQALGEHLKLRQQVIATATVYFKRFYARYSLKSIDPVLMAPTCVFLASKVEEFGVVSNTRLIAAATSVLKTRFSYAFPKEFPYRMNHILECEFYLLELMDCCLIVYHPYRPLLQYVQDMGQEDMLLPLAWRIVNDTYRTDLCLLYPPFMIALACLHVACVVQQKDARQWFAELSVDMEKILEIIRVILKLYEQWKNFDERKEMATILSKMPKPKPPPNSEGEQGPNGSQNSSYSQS
Aurora kinase A (Homo sapiens), sequence (O14965 whole entry): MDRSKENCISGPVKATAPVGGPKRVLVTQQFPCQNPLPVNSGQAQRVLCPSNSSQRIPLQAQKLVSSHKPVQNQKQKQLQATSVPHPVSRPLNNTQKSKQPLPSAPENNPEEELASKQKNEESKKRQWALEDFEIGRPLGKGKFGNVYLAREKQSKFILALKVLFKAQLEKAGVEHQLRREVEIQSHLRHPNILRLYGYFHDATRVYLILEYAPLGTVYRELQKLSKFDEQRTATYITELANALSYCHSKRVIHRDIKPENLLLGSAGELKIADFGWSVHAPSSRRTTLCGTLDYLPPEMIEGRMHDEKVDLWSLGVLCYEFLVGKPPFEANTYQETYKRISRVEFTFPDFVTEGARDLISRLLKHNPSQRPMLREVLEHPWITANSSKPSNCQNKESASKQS
RAC-alpha serine/threonine-protein kinase (Homo sapiens), sequence (P31749 whole entry): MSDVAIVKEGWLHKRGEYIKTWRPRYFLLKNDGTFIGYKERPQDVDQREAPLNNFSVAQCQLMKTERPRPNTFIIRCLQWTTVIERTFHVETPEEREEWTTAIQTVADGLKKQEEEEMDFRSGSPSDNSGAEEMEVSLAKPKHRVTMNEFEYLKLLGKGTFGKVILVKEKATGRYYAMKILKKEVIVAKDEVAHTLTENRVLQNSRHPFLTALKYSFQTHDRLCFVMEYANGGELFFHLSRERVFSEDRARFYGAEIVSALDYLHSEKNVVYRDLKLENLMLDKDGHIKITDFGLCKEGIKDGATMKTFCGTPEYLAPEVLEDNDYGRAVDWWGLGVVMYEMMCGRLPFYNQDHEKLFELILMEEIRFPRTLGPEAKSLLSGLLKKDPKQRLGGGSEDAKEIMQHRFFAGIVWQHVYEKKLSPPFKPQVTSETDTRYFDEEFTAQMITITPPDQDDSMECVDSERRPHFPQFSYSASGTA
Insulin-like growth factor 1 receptor (Homo sapiens), sequence (P08069 31-736 limits assumed): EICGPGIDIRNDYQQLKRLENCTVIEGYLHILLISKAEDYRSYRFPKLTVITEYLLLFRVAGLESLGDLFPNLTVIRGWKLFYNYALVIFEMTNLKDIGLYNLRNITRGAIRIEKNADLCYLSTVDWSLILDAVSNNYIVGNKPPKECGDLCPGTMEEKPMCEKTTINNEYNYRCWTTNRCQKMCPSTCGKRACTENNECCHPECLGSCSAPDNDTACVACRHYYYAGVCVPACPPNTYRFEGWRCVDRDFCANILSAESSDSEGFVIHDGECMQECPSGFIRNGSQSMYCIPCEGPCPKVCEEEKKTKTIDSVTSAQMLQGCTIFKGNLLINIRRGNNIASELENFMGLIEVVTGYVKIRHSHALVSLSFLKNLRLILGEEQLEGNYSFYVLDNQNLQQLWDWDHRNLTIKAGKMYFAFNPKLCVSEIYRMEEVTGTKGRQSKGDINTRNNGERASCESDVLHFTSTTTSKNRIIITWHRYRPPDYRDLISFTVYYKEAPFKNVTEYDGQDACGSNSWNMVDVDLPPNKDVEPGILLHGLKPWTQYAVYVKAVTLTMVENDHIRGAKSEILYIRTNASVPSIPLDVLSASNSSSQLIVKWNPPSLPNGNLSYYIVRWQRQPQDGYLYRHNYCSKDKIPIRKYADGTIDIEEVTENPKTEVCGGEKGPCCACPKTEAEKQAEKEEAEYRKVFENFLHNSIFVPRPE
Insulin-like growth factor 1 receptor (Homo sapiens), sequence (P08069 741-1367 limits assumed): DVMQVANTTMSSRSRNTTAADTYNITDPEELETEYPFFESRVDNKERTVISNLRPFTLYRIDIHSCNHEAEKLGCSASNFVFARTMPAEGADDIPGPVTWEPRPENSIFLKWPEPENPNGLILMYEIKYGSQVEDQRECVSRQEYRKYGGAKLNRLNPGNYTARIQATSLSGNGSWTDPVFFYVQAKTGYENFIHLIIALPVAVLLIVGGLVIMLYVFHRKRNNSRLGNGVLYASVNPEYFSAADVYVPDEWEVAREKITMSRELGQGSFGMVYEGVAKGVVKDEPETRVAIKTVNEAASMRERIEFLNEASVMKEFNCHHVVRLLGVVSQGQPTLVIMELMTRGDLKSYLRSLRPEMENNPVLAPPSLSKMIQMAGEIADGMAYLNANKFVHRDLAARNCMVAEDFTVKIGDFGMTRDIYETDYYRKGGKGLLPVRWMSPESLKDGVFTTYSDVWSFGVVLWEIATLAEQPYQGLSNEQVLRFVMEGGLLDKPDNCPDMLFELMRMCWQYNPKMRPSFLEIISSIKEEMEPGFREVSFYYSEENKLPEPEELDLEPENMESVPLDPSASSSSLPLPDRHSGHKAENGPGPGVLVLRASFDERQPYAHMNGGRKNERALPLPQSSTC
Ephrin type-A receptor 1 (Homo sapiens), sequence (P21709 whole entry): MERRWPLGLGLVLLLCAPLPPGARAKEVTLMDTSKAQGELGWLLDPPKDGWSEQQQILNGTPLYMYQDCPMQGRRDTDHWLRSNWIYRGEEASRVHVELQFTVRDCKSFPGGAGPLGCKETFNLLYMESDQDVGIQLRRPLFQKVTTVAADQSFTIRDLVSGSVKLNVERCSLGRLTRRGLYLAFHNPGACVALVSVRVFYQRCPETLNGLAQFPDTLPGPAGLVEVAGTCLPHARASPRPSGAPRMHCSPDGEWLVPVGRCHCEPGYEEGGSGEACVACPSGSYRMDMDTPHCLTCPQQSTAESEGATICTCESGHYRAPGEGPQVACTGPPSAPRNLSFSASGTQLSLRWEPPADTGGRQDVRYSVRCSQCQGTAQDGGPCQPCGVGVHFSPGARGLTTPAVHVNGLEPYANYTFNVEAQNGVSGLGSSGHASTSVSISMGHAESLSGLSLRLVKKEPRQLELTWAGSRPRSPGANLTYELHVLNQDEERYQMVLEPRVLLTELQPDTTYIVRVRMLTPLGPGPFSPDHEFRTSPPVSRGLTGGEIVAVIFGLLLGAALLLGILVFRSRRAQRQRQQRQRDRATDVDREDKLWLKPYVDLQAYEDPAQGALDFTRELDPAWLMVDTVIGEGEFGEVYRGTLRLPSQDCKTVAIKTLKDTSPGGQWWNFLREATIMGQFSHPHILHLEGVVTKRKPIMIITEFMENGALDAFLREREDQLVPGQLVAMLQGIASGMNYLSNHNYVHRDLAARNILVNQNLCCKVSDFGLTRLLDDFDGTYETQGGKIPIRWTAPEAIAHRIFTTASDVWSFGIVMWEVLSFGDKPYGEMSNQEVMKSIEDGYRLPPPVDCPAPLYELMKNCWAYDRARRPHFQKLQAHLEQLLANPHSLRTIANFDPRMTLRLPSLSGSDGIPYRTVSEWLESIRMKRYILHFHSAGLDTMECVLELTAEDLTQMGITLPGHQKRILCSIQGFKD
Mast/stem cell growth factor receptor Kit (Homo sapiens), sequence (P10721 whole entry): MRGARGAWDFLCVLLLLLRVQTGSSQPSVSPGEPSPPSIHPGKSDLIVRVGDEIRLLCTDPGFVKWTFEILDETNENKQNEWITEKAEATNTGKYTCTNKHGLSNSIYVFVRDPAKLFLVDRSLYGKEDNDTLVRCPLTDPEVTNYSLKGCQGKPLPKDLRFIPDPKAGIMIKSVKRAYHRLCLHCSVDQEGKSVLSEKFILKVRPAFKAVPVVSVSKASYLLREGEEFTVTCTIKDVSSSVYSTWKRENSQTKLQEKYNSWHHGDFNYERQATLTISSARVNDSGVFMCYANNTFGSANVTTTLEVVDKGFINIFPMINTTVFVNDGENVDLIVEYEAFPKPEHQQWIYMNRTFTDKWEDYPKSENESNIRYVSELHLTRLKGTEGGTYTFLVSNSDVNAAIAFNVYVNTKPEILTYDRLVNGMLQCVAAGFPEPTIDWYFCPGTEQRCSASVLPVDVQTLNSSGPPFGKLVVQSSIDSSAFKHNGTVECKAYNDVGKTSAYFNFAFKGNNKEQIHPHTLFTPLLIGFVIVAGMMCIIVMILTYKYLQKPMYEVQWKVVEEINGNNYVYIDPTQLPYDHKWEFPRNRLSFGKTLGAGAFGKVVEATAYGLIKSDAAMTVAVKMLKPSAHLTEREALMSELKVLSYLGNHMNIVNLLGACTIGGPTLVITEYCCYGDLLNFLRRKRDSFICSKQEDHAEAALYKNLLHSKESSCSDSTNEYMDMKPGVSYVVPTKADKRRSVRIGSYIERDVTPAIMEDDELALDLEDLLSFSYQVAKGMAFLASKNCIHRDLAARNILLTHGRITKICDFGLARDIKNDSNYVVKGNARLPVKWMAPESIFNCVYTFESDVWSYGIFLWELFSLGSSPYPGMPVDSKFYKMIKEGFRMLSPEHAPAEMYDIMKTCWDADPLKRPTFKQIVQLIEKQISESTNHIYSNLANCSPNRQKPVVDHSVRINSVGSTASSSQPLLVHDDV

- IC50 (CDK8/Cyclin C): 280 nM
Compound: N#Cc1cc(-c2ccncc2)c[nH]1

Compound: NC(=O)c1[nH]cc(-c2ccncc2)c1Cl
- IC50 (AGS): 370 nM
- IC50 (CDK8/Cyclin C): 5 nM

- IC50 (CDK8/Cyclin C): 19 nM
Compound: NC(=O)c1cc(-c2ccncc2Cl)c[nH]1

- IC50 (CDK8/Cyclin C): 87 nM
Compound: Cc1cnccc1-c1c[nH]c(C(N)=O)c1

Compound: Cc1cnccc1-c1c[nH]c(C(N)=O)c1C
- IC50 (AGS): 1170 nM
- IC50 (CDK8/Cyclin C): 10 nM

- IC50 (CDK8/Cyclin C): 240 nM
Compound: Cc1[nH]c(C(N)=O)cc1-c1ccncc1

Compound: NC(=O)c1[nH]cc(-c2ccncc2)c1C(F)(F)F
- IC50 (AGS): 270 nM
- IC50 (CDK8/Cyclin C): 3 nM
- clearance [1]: 8.87 mL/min/kg
- Cmax [2]: 9940 ng/mL
- Cmax [3]: 12700 ng/mL
- Tmax [4]: 15 min
- half-life [5]: 50.4 min
- half-life [6]: 475 min
- Vd [7]: 0.49 L/kg
- bioavailability [8]: 57.5%

- IC50 (CDK8/Cyclin C): 4950 nM
Compound: Cn1cc(-c2ccncc2)cc1C(N)=O

- IC50 (CDK8/Cyclin C): 160 nM
Compound: NC(=O)c1cc(-c2ccncc2)c(Cl)[nH]1

Compound: CCc1c(-c2ccncc2)c[nH]c1C(N)=O
- IC50 (AGS): 1120 nM
- IC50 (CDK8/Cyclin C): 13 nM

- IC50 (CDK8/Cyclin C): 4630 nM
Compound: CCc1cnccc1-c1c[nH]c(C#N)c1

- IC50 (CDK8/Cyclin C): 170 nM
Compound: NC(=O)c1cc(-c2ccncc2)cn1Cc1ccccc1

Compound: Cc1c(-c2ccncc2)c[nH]c1C(N)=O
- IC50 (AGS): 800 nM
- IC50 (CDK8/Cyclin C): 8 nM
- inhibition [9]: < 20%
- inhibition [10]: < 20%
- inhibition [11]: < 20%
- inhibition [12]: < 20%
- inhibition (Homo sapiens): < 20%
- inhibition [13]: < 20%
- inhibition [14]: < 20%
- inhibition [15]: < 20%
- inhibition [16]: < 20%
- inhibition [17]: < 20%
- inhibition [18]: < 20%
- inhibition [19]: < 20%
- inhibition [20]: < 20%
- inhibition [21]: < 20%
- inhibition [22]: < 20%
- inhibition [23]: < 20%
- inhibition [24]: < 20%
- inhibition [25]: < 20%
- inhibition [26]: < 20%
- inhibition [27]: < 20%
- inhibition [28]: < 20%
- inhibition [29]: < 20%
- inhibition [30]: < 20%
- inhibition [31]: < 20%
- inhibition [32]: < 20%
- inhibition [33]: < 20%
- inhibition [34]: < 20%
- inhibition [35]: < 20%
- inhibition [36]: < 20%
- inhibition [37]: < 20%
- inhibition [38]: < 20%
- inhibition [39]: < 20%
- inhibition [40]: < 20%
- inhibition [41]: < 20%
- inhibition [42]: < 20%
- inhibition [43]: < 20%
- inhibition [44]: < 20%
- inhibition [45]: < 20%
- inhibition [46]: < 20%
- inhibition [47]: < 20%
- inhibition [48]: < 20%
- inhibition [49]: < 20%
- inhibition [50]: < 20%

- IC50 (CDK8/Cyclin C): 480 nM
Compound: Cc1cc(-c2c[nH]c(C(N)=O)c2)ccn1

- IC50 (CDK8/Cyclin C): 350 nM
Compound: NC(=O)c1cc(-c2ccnc(Cl)c2)c[nH]1

- IC50 (CDK8/Cyclin C): 37 nM
Compound: NC(=O)c1cc(-c2ccncc2Br)c[nH]1

- IC50 (CDK8/Cyclin C): 170 nM
Compound: NC(=O)c1cc(-c2ccncc2)c[nH]1

- IC50 (CDK8/Cyclin C): 19 nM
Compound: Cc1cc(-c2c[nH]c(C(N)=O)c2C)ccn1

- IC50 (CDK8/Cyclin C): 410 nM
Compound: CNC(=O)c1cc(-c2ccncc2)c[nH]1
